Data taken from patent US11931374B2, “Adenosine receptor modulators for the treatment of circadian rhythm disorders” (OXFORD UNIVERSITY INNOVATION LIMITED, priority 2016, dated 2024).

Columns and labels:
[1] = tested on: intracellular levels of cAMP; experiment: cAMP GloSensor assay in U2OS cells; format: cell-based
Experimental: The GloSensor™ cAMP Assay (Promega) was used for detecting changes in the intracellular levels of cAMP. Initially, a Greiner Bio-One 96 Well Plate (white, TC treated) was seeded at 8000 cells per 100 μl well, as described above. After 24 hours, the cells were transfected with the pGloSensor™ cAMP Plasmid using the Viafect transfection reagent as above. Between 24 and 48 hours later, allowing for the accumulation of the biosensor, the medium in the 96 well plate was changed to C02-Independent Medium supplemented with GlutaMAX™ (Life Technologies), 10% fetal bovine serum and 2% GloSensor™ cAMP Reagent. The plate was then stood for 2 hours at room temperature to equilibrate. Following the incubation period, the cells were treated with relevant drugs and their luminescence values were measured after 20 minutes in the BMG FLUOstar OPTIMA Microplate Reader, with forskolin as a positive control, and DMSO as a negative control.

[2] = tested on: Fos; experiment: Fos mRNA after drug treatment; format: cell-based; details: 10 uM
Experimental: (§1) Total RNA was extracted using the microRNeasy column method (Qiagen, Hilden, Germany). Quality and quantity of RNA were measured using an Agilent Bioanalyzer and a Nanodrop1000 (Thermo Fisher Scientific, Waltham, MA USA), respectively.
(§2) RNA samples were prepared as described for microarray hybridisation. cDNA was synthesized with a qScript cDNA synthesis kit (Quanta Biosciences, Gaithersburg, MD), and quantitative PCR (qPCR) was conducted with Sybr green I and an SDS7700 thermal cycler (Applied Biosystems, Foster City, CA). Relative quantification of transcript levels was done as described previously (Peirson et al., Nucleic Acids Res. 2003 Jul. 15; 31(14):e73.). The geometric mean of a minimum of three housekeeping genes was used for normalization (Gapdh, ActB, GusB and Rps9 for example).

[3] = tested on: C57Bl/6 mice; experiment: Phase shifting of circadian activity by drug (running wheel); format: in vivo
Experimental: Animals were housed under a reversed 12:12 LD cycle (400 lux from white LED lamps) with food and water ad libitum. For phase-shifting studies, C57Bl/6 mice were maintained on running wheels in light tight chambers on a 12:12 LD cycle (400 lux from white LED lamps) and injected with drug at the indicated time points. The drugs were formulated in a vehicle consisting of 5% Koliphor-HS15 (Sigma-Aldrich, UK) 5% Cyclodextran (Sigma-Aldrich, UK) in 0.9% saline. This vehicle was warmed to 37° C. and the indicated drugs kept at a 100× stock in DMSO and mixed at the appropriate concentration to be administered at approximately 300 ul intraperitoneal injection (n=6 to 10). Where the time point of injection was in the dark, the procedure was conducted under dim red light. Where measuring phase-shifting, the mice were then placed in DD and allowed to free run for 14 days in DD, running wheel activity data was collected and analysed on Clocklab (Actimetrics, Wilmette, IL). For jet-lag studies, mice were maintained on running wheels in light tight chambers on a 12:12 LD cycle (400 lux from white LED lamps) and injected with drugs as above at ZT6 and the LD cycle was shifted 6 hours in advance. The onset of activity on each day was used to measure phase relative to the LD cycle.
Phase Shifting: C57Bl/6 male mice (80 days or older) were maintained on running wheels in light tight chambers on a 12:12 LD cycle (100 lux from white LED lamps) on stable entrainment, were released in complete darkness. At set times as indicated in the experiments, the animals received an intraperitoneal injection (300 ul) of drug constituted in sterile saline with 5% Cyclodextrin (Sigma-Aldrich) and 5% Koliphor (Sigma-Aldrich) and then allowed to free run in DD, running wheel activity data were collected and analysed on Clocklab (Actimetrics, Wilmette, IL).

[4] = tested on: CRE::Luc reporter; experiment: CRE-Luc luciferase assay in U2OS cells; format: cell-based
Experimental: At 60-80% confluence and >90% viability, the U2OS cells in the T-75 flask were washed twice with 6 ml phosphate-buffered saline (PBS) and subsequently treated with 4 ml of TrypLE™ Express trypsin replacement solution for 10 minutes. A Greiner Bio-One 96 Well Plate (white, TC treated), was then seeded at 8000 cells per well. Following 24 hours, the cells were transfected at 50-70% confluency with CRE-luc Vector generated in-house with Viafect transfection reagent at 1:4 ratio (100 ng DNA/well) following manufacturers recommendations.
24 hours after transfection, the medium in the 96 well plate was changed to a serum-free medium with 1 mM luciferin. The cells were then incubated in serum starvation conditions for 6-8 hours, this was optimised to yield the greatest signal strength and lowest noise when assayed with forskolin control. Following the incubation period, the CRE-Luc U2OS cells were treated with the appropriate drug and their luminescence values were measured after 6 hours in the BMG FLUOstar OPTIMA Microplate Reader. […] Unless stated otherwise, forskolin was used as a positive control, and 1% DMSO was used as a negative control.

[5] = tested on: Bmal1::Luc reporter U2OS cells; experiment: Bmal1::Luc reporter U2OS cells circadian rhythm; format: cell-based; details: 10 uM
[6] = tested on: Per2; experiment: Per2 mRNA levels in U2OS cells by qPCR; format: cell-based
Experimental: as §1, §2
Cells from the U2OS (HTB-96) line were obtained, tested and identified. The cells were cultured in T-75 flasks, in Dulbecco's modified Eagle medium (DMEM) supplemented with 10% foetal bovine serum (FBS) and 1% penicillin-streptomycin (P/S) at 37° C. in a humidified atmosphere at 5% CO2. The cells were subcultured every 2 to 4 days in a 1:2 to 1:6 ratio, in accordance with the ATCC recommendations. The cells were counted using a haemocytometer, and their viability in a culture was maintained at above 95%, measured with a Presto Blue exclusion assay according to the manufacturer's specifications. Cells were transfected with siRNAs (typically at 50 nM concentrations, sequences as previously listed), the CRE::Luc (pGL4.29[luc2P/CRE/Hygro] Vector, encoding Luc2P […] under the control of a strong cAMP response element (CRE) promoter containing 3 CRE elements within its sequence; Promega) reporter vector or cAMP-GLOSensor plasmid (Promega) as per manufacturer's instructions using either Lipofectamine RNAimax (Invitrogen) or Lipofectamine3000 (Invitrogen).

[7] = tested on: STAR-PROM plasmid library; experiment: STAR-PROM transcription factor screening in U2OS cells; format: cell-based
Experimental: This was conducted as previously reported in Gerber et al., Cell. […] Briefly, U2OS cells were cultured in 6-well plates and transfected with 1 ug of the STAR-PROM plasmid library (library structure as in above reference). RNA was extracted at set time points and sequenced for the barcoded luciferase constructs and analysed with Galaxy (https://use.galaxy.org).

[8] = tested on: cJun; experiment: cJun mRNA after drug treatment; format: cell-based; details: 10 uM
Experimental: as §1, §2

Compound: Nc1nc(-c2ccccc2)c2c(n1)-c1cc(OCCN3CCOCC3)ccc1C2=O [JNJ40255293, 2-amino-8-[2-(4-morpholinyl)ethoxy]-4-phenyl-5H-indeno[1,2-d]pyrimidin-5-one]
- cAMP levels [1]: does not elevate cAMP levels
- increase in cAMP ([1]; 30 uM): 50%
- Fos mRNA [2]: Upregulation
- phase shift of circadian activity ([3]; 5 mg/kg intraperitoneal, 6 h after the onset of light (ZT6), then constant dark): induced a phase advance
- phase shift of circadian activity ([3]; 5 mg/kg, administered at CT16, constant dark): resulted in a phase delay
- phase shifts compared with other agents (FIG. 9A) ([3]; difference between onset pre and post injection): causes the largest phase shifts
- CREB-driven transcription (CRE::Luc reporter) [4]: does not increase signals from the CRE::Luc reporter
- period length [5]: increases in period length
- rhythms after washout of drug [5]: revert to normal rhythms after washout of drug
- Per2 transcription ([6]; 4 h post-drug treatment): significantly increased
- Per2 mRNA ([6]; U2OS cell cultures, 10 uM): Robust increases
- Per2 mRNA levels ([6]; U2OS cells, 30 uM): elevated
- Per2 mRNA levels / expression ([6]; U2OS cells, qPCR, concentration not given): induce the expression of Per1 and Per2
- clones with significantly increased reporter signal ([7]; BC-STARPROM, 30 uM): 8 clones
- response of clone3 reporter ([7]; isolated clone3): responded
- cJun mRNA [8]: Upregulation
